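The compound was tested at five concentrations on cells cultured in 96-well plates, with a 48-hour exposure period. Abbreviation: GI50, concentration required for 50% inhibition of growth.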 The source made the active and inactive calls. Cut-off read from the data, not from the text of the source: active = GI50 up to about 1.1 µM and inactive = higher.
Experiments:
Test in all cases: NCI-60 cell line screen, 48 h
[1] = tested on: CAKI-1
[2] = tested on: SF-295
[3] = tested on: RPMI-8226
[4] = tested on: SK-OV-3
[5] = tested on: HCC 2998
[6] = tested on: A498
[7] = tested on: CCRF-CEM
[8] = tested on: HL-60
[9] = tested on: MOLT-4
[10] = tested on: K562
[11] = tested on: ACHN
[12] = tested on: HT-29
[13] = tested on: 786-0
[14] = tested on: LOX IMVI
[15] = tested on: SR
[16] = tested on: HCT-15
[17] = tested on: SF-539
[18] = tested on: NCI/ADR-RES
[19] = tested on: MDA-MB-435
[20] = tested on: SN12C

Row | SMILES | GI50 [1] | GI50 [2] | GI50 [3] | GI50 [4] | GI50 [5] | GI50 [6] | GI50 [7] | GI50 [8] | GI50 [9] | GI50 [10] | GI50 [11] | GI50 [12] | GI50 [13] | GI50 [14] | GI50 [15] | GI50 [16] [µM] | GI50 [17] | GI50 [18] | GI50 [19] | GI50 [20]
1 | CCCC(=O)OC[n+]1cccc(-c2c(COC(=O)NC(C)C)c(COC(=O)NC(C)C)c3n2CCC3)c1 | 8.51 µM (inactive) | 71.9 µM (inactive) | 32.3 µM (inactive) | > 100 µM (inactive) | > 100 µM (inactive) | 28.5 µM (inactive) | 9.98 µM (inactive) | 15.7 µM (inactive) | 13.6 µM (inactive) | 50.8 µM (inactive) | 30.7 µM (inactive) | > 68.2 µM (inactive) | 37.5 µM (inactive) | 35.2 µM (inactive) | 5.75 µM (inactive) | > 93.3 | 28.8 µM (inactive) | 61.8 µM (inactive) | 98.2 µM (inactive) | 37.8 µM (inactive)
2 | COc1cc(CNc2nc3ccccc3nc2-c2cccs2)cc(OC)c1OC | 11.2 µM (inactive) | 33.5 µM (inactive) | 10.5 µM (inactive) | 29.8 µM (inactive) | 39.1 µM (inactive) | 18.6 µM (inactive) | 13.1 µM (inactive) | 14 µM (inactive) | 7.67 µM (inactive) | 17.6 µM (inactive) | 13.9 µM (inactive) | 26.9 µM (inactive) | 25.2 µM (inactive) | 17.7 µM (inactive) | 6.87 µM (inactive) | 21.9 | 78.5 µM (inactive) | 8.24 µM (inactive) | 21.7 µM (inactive) | 12.9 µM (inactive)
3 | CN(C)/C=[N+]1/[C@@H](Cc2ccccc2)C(=O)O[B-]1(F)c1ccccc1 (stereo partly drawn) |  | > 100 µM (inactive) | > 100 µM (inactive) | > 100 µM (inactive) | > 100 µM (inactive) | > 100 µM (inactive) | > 100 µM (inactive) | > 100 µM (inactive) | > 100 µM (inactive) | > 100 µM (inactive) | > 100 µM (inactive) | > 100 µM (inactive) | > 100 µM (inactive) | > 100 µM (inactive) | > 100 µM (inactive) | > 100 |  | > 100 µM (inactive) | > 100 µM (inactive) | > 100 µM (inactive)
4 | COC1=CC(=O)c2c(CCNC(=O)OCc3ccccc3)n[nH]c2C1=O |  | 20.6 µM (inactive) | 13 µM (inactive) |  | 19 µM (inactive) | 17.5 µM (inactive) |  | 16.1 µM (inactive) | 16.8 µM (inactive) | 16 µM (inactive) | 14.2 µM (inactive) | 22.8 µM (inactive) | 17.5 µM (inactive) | 4.54 µM (inactive) | 19.1 µM (inactive) | 12.6 | 17.9 µM (inactive) | 75.9 µM (inactive) | 2.16 µM (inactive) | 13.8 µM (inactive)
5 | CN1CCc2[nH]nc(-c3n[nH]c4c3CN(C)CC4)c2C1 | > 100 µM (inactive) | > 100 µM (inactive) | > 100 µM (inactive) | > 100 µM (inactive) | > 100 µM (inactive) | > 100 µM (inactive) | 72.8 µM (inactive) |  | > 100 µM (inactive) | > 100 µM (inactive) | > 100 µM (inactive) | > 100 µM (inactive) | > 100 µM (inactive) | > 100 µM (inactive) | > 100 µM (inactive) | > 100 | > 100 µM (inactive) | > 100 µM (inactive) | > 100 µM (inactive) | > 100 µM (inactive)
6 | O=C1Nc2ccccc2/C1=N/N=C1NCCCCN1 | > 100 µM (inactive) | > 100 µM (inactive) | > 100 µM (inactive) | > 100 µM (inactive) | > 100 µM (inactive) | > 100 µM (inactive) | > 100 µM (inactive) |  | > 100 µM (inactive) | > 100 µM (inactive) | > 100 µM (inactive) | > 100 µM (inactive) | > 100 µM (inactive) | > 100 µM (inactive) | > 100 µM (inactive) | > 100 | > 100 µM (inactive) | > 100 µM (inactive) | > 100 µM (inactive) | > 100 µM (inactive)
7 | C=CC1(C)CCC2C(=CCC3C2(C)CC(O)C(O)C3(C)COC2OC(CO)C(O)C(O)C2O)C1 (stereo not drawn) | > 100 µM (inactive) | > 100 µM (inactive) |  | > 100 µM (inactive) | > 100 µM (inactive) | > 100 µM (inactive) | 46.1 µM (inactive) | 57.9 µM (inactive) | 68.1 µM (inactive) | > 100 µM (inactive) | > 100 µM (inactive) | > 100 µM (inactive) | > 100 µM (inactive) | > 100 µM (inactive) | 41.4 µM (inactive) | > 100 | > 100 µM (inactive) | > 100 µM (inactive) | > 100 µM (inactive) | > 100 µM (inactive)
8 | NC(=S)N1N=C2c3ccccc3CCC[C@H]2[C@@H]1c1ccccc1 |  | 1.03 µM (active) | 0.824 µM (active) | 0.427 µM (active) | 1.99 µM (inactive) | 3.1 µM (inactive) | 0.528 µM (active) | 0.589 µM (active) | 0.638 µM (active) | 0.284 µM (active) | 5.07 µM (inactive) | 0.867 µM (active) | 1.01 µM (active) | 1.59 µM (inactive) | 0.249 µM (active) | 1.29 | 0.518 µM (active) | 0.348 µM (active) | 0.0977 µM (active) | 2.52 µM (inactive)
9 | COc1ccc2c(c1)CCN1CCc3cc(OC)c(OC)cc3CC21 (stereo not drawn) | > 100 µM (inactive) | > 100 µM (inactive) | 65.5 µM (inactive) | > 100 µM (inactive) | 38.3 µM (inactive) | > 100 µM (inactive) | 55 µM (inactive) |  | 39.4 µM (inactive) | 34.9 µM (inactive) | > 100 µM (inactive) | 35 µM (inactive) | > 100 µM (inactive) | 33 µM (inactive) | 39.8 µM (inactive) | 61 | 76.4 µM (inactive) | > 100 µM (inactive) | 66.1 µM (inactive) | > 100 µM (inactive)
10 | COc1cc2c(cc1OC)C(C1CC1)ON(C)CC2 (stereo not drawn) | > 100 µM (inactive) | > 100 µM (inactive) | > 100 µM (inactive) |  | > 100 µM (inactive) | > 100 µM (inactive) | > 100 µM (inactive) | > 100 µM (inactive) | > 100 µM (inactive) | > 100 µM (inactive) | > 100 µM (inactive) | > 100 µM (inactive) | > 100 µM (inactive) | > 100 µM (inactive) | > 100 µM (inactive) | > 100 | > 100 µM (inactive) | > 100 µM (inactive) | > 100 µM (inactive) | > 100 µM (inactive)
11 | C=C(C)[C@@H]1CCC2=C(CC[C@]3(C)[C@@H]([C@@H](CCC=C(C)C)C(=O)O)[C@H](O)C[C@@]23C)[C@@]1(C)CCC(=O)O [PORICOIC ACID G] | 83.6 µM (inactive) | 50.4 µM (inactive) | 88.7 µM (inactive) | > 100 µM (inactive) |  | > 100 µM (inactive) | 63.2 µM (inactive) | 0.0393 µM (active) | > 100 µM (inactive) | 53.2 µM (inactive) | 75.2 µM (inactive) | 47.4 µM (inactive) | 85.9 µM (inactive) | 61.2 µM (inactive) | 29.4 µM (inactive) | 38.6 | 59.3 µM (inactive) | > 100 µM (inactive) | > 100 µM (inactive) | 52.4 µM (inactive)
12 | CN(C)Cc1cc(C(=O)/C=C/c2ccc(Br)cc2)cc(CN(C)C)c1O | 2.28 µM (inactive) | 5.58 µM (inactive) | 4.74 µM (inactive) |  | 13.7 µM (inactive) | 14.3 µM (inactive) | 3.24 µM (inactive) | 3.4 µM (inactive) | 3.91 µM (inactive) | 2.43 µM (inactive) | 3.6 µM (inactive) | 3.2 µM (inactive) | 5.28 µM (inactive) | 1.99 µM (inactive) | 5.85 µM (inactive) | 11.8 | 14.3 µM (inactive) | 16.7 µM (inactive) | 14.3 µM (inactive) | 2.84 µM (inactive)
13 | C=C(C)C1Cc2c(cc(O)c3c(=O)c4c(oc23)C(O)Oc2cc(OC)c(OC)cc2-4)O1 (stereo not drawn) | > 10 µM (inactive) | > 10 µM (inactive) | > 10 µM (inactive) |  | > 10 µM (inactive) | > 10 µM (inactive) | > 10 µM (inactive) | > 10 µM (inactive) | > 10 µM (inactive) | > 10 µM (inactive) | > 10 µM (inactive) | > 10 µM (inactive) | > 10 µM (inactive) |  | > 10 µM (inactive) | > 10 | > 10 µM (inactive) | > 10 µM (inactive) | > 10 µM (inactive) | > 10 µM (inactive)
14 | CC(=O)OC1CCC2(C)C(=CCC3C2CCC2(C)C(C(C)C(=O)O)CCC32)C1 (stereo not drawn) | > 100 µM (inactive) | > 100 µM (inactive) | > 100 µM (inactive) | > 100 µM (inactive) | 57 µM (inactive) | 59.7 µM (inactive) | > 100 µM (inactive) |  | > 100 µM (inactive) | > 100 µM (inactive) | 59.7 µM (inactive) | 48.6 µM (inactive) | > 100 µM (inactive) | > 100 µM (inactive) | > 100 µM (inactive) | 78.5 | > 100 µM (inactive) | > 100 µM (inactive) | > 100 µM (inactive) | > 100 µM (inactive)
15 | COc1ccc(/C=C2/C(C)=NN(c3cccc(Cl)c3)/C2=N/c2nc3ccccc3s2)cc1 | 28.4 µM (inactive) | 22.5 µM (inactive) | 22.7 µM (inactive) | 24 µM (inactive) | 18.3 µM (inactive) | 23.1 µM (inactive) | 25.3 µM (inactive) | 20.7 µM (inactive) | 24.9 µM (inactive) | 26.7 µM (inactive) | 20.6 µM (inactive) | 19.5 µM (inactive) | 20.3 µM (inactive) | 18 µM (inactive) | 23.9 µM (inactive) | 17.5 | 26.7 µM (inactive) | 22.9 µM (inactive) | 33.7 µM (inactive) | 

From ChEMBL document CHEMBL1201862, “PubChem BioAssay data set” (2004)
